From paper PMC12567347, “Angiotensin II/Angiotensin I Ratio as a New Pharmacodynamic Parameter for Population Modelling in Healthy Adults and Children with Heart Failure Treated with Enalapril” (Pharmaceutics, 2025)

Assays:
[1] = target: T1, angiotensin-converting enzyme (ACE) (Homo sapiens, UniProt P12821); test: Percentage change in the angiotensin II/angiotensin I ratio four hours after the initial enalapril dose in children with heart failure; format: in vivo; conditions: eight children with heart failure, four hours after first dose, median 0.06 mg/kg enalapril maleate
T1 construct: from tissue; host or cells: in vivo in human subjects; ACE activity read indirectly from the plasma angiotensin II/angiotensin I ratio
T1 sequence (P12821 30-1306): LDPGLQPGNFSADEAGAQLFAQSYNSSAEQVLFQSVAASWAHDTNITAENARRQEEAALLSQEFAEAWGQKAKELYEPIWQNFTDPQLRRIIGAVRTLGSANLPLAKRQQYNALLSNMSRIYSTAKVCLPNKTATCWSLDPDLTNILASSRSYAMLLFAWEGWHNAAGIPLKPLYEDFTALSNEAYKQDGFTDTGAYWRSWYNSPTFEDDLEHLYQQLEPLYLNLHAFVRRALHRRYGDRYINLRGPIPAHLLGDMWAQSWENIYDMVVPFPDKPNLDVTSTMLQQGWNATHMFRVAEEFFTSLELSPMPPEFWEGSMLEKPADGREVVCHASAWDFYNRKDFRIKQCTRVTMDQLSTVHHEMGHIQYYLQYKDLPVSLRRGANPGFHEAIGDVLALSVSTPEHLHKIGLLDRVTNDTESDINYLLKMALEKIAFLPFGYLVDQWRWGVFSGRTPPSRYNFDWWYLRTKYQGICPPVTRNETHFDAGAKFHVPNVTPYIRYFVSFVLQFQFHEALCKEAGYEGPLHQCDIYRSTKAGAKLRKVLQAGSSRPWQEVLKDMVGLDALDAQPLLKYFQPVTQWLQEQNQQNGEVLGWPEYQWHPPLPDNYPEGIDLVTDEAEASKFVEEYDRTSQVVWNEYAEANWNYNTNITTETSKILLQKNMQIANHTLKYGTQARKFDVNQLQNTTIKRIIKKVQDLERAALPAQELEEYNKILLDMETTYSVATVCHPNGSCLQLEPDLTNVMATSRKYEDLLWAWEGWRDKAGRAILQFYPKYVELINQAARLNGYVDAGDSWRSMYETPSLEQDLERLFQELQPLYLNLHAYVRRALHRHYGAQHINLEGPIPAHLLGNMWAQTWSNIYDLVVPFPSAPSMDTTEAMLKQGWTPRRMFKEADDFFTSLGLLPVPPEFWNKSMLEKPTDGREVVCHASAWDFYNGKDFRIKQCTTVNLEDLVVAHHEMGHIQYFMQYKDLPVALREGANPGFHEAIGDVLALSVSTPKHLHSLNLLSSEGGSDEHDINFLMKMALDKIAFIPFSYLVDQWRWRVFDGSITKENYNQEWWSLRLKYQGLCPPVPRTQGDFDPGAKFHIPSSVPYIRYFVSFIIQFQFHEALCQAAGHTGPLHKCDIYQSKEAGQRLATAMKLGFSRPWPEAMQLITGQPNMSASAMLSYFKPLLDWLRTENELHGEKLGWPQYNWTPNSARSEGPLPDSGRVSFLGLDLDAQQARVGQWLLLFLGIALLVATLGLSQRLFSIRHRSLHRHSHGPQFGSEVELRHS
Protocol: In the pharmacokinetic bridging studies, a pharmacokinetic/pharmacodynamic profile was usually obtained in ACE inhibitor-naïve subjects at the initial dose visit, with pharmacokinetic samples collected before and 1, 2, 4, 6, and 12 h after enalapril orodispersible minitablet administration, as well as pharmacodynamic samples collected before and 4 h after administration. Alternatively, the pharmacokinetic/pharmacodynamic profile could also be obtained after reaching steady state at the optimal dose. In this case, the 12 h pharmacokinetic sample was omitted. Single pharmacokinetic and pharmacodynamic samples were collected in immediate succession during the remaining study visits. […]
For the simultaneous determination of several angiotensin peptides, including angiotensin I and angiotensin II, a validated multiplex liquid chromatography high-resolution mass spectrometry method was applied. Following precipitation and solid-phase extraction, the samples were analyzed using a Nexera XR liquid chromatography system (Shimadzu, Duisburg, Germany) coupled to a TripleTOF® 6600 mass spectrometer from AB Sciex (Concord, ON, Canada). […]
The percentage change in the angiotensin II/angiotensin I ratio was calculated in children with heart failure in whom an angiotensin II/angiotensin I ratio was available before the first dose of enalapril and four hours afterwards.

[2] = test system: ACE activity; set-up: method as in PMID 8512763; conditions: eight infants with congestive heart failure, after four hours, single dose of 0.25 mg/kg enalapril maleate; cited from earlier work
[3] = Serum enalaprilat concentrations in children with heart failure treated with enalapril orodispersible minitablets; format: in vivo, human; conditions: median first dose 0.06 mg/kg, median daily dose 0.11 mg/kg enalapril maleate
Protocol: For the studies, a dosing regimen with age- and weight-dependent recommended titration doses, target doses, and maximum doses was developed using physiologically based pharmacokinetic simulation (Table S2). The appropriate dosage for each subject was selected based on the judgment of the investigator. Daily doses ≤ 0.25 mg were administered once daily in the morning, and daily doses > 0.25 mg were administered in two equal divided doses in the morning and evening. The required number of orodispersible minitablets with 0.25 mg enalapril maleate or 1 mg enalapril maleate (now approved as Aqumeldi®, Proveca Pharma Limited, Dublin, Ireland) was placed in the patient’s cheek pouch. The orodispersible minitablets rapidly disintegrated into small, easily swallowable particles. To facilitate swallowing, a fluid of the patient’s/parent’s choice (e.g., breast milk, formula milk, cow milk, water) could be administered.
In the pharmacokinetic bridging studies, a pharmacokinetic/pharmacodynamic profile was usually obtained in ACE inhibitor-naïve subjects at the initial dose visit, with pharmacokinetic samples collected before and 1, 2, 4, 6, and 12 h after enalapril orodispersible minitablet administration, as well as pharmacodynamic samples collected before and 4 h after administration. […]

[4] = set-up: method as in PMID 26256099; conditions: parameters estimated in children extrapolated to an adult weight of 70 kg; cited from earlier work

highest measured enalaprilat concentration [3] | Compound | decrease in angiotensin II/angiotensin I ratio, median [1] | decrease in angiotensin II/angiotensin I ratio, range [1] | mean inhibition of ACE activity [2] | apparent central volume of distribution of enalaprilat [4] | apparent clearance of enalaprilat [4]
– | CCOC(=O)[C@H](CCc1ccccc1)N[C@@H](C)C(=O)N1CCC[C@H]1C(=O)O [enalapril] | 79.3% | 21.4–92.7% | 75.5% | – | –
18.3 µg/L | C[C@H](N[C@@H](CCc1ccccc1)C(=O)O)C(=O)N1CCC[C@H]1C(=O)O [enalaprilat] | – | – | – | 168.8 L | 18.2 L/h
